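Cultured in 96-well plates, cells were exposed to test compound for 48 hours across five concentrations. Here, GI50 denotes the concentration required for 50% inhibition of growth. TGI is the concentration that stops growth completely.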
Key:
Experiment in all cases: NCI anticancer screen, dose series, 48 h
OVCAR-4 ovarian = test system: OVCAR-4 ovarian
MDA-MB-435 = test system: MDA-MB-435
CAKI-1 renal = test system: CAKI-1 renal
MCF7 breast = test system: MCF7 breast
SK-MEL-2 melanoma = test system: SK-MEL-2 melanoma
SF-268 CNS = test system: SF-268 CNS
DU-145 prostate = test system: DU-145 prostate
MOLT-4 leukemia = test system: MOLT-4 leukemia
TK-10 renal = test system: TK-10 renal
HCC-2998 colon = test system: HCC-2998 colon
SNB-19 CNS = test system: SNB-19 CNS
OVCAR-3 ovarian = test system: OVCAR-3 ovarian
BT-549 breast = test system: BT-549 breast
K-562 leukemia = test system: K-562 leukemia
NCI-H460 lung = test system: NCI-H460 lung
HOP-62 NSCLC = test system: HOP-62 NSCLC
OVCAR-8 ovarian = test system: OVCAR-8 ovarian
PC-3 prostate = test system: PC-3 prostate
RPMI-8226 leukemia = test system: RPMI-8226 leukemia
HCT-15 colon = test system: HCT-15 colon
SR leukemia = test system: SR leukemia
OVCAR-5 ovarian = test system: OVCAR-5 ovarian
NCI-H522 lung = test system: NCI-H522 lung
U251 CNS = test system: U251 CNS
HCT-116 colon = test system: HCT-116 colon
IGROV1 ovarian = test system: IGROV1 ovarian
UACC-62 melanoma = test system: UACC-62 melanoma
RXF 393 renal = test system: RXF 393 renal
NCI/ADR-RES ovarian = test system: NCI/ADR-RES ovarian
SK-OV-3 ovarian = test system: SK-OV-3 ovarian
SF-539 CNS = test system: SF-539 CNS
EKVX NSCLC = test system: EKVX NSCLC
T-47D breast = test system: T-47D breast
NCI-H23 lung = test system: NCI-H23 lung
KM12 colon = test system: KM12 colon
HL-60(TB) leukemia = test system: HL-60(TB) leukemia
A549 NSCLC = test system: A549 NSCLC
786-0 renal = test system: 786-0 renal
SK-MEL-28 melanoma = test system: SK-MEL-28 melanoma
SF-295 CNS = test system: SF-295 CNS
ACHN renal = test system: ACHN renal
MALME-3M melanoma = test system: MALME-3M melanoma
UO-31 renal = test system: UO-31 renal
LOX IMVI melanoma = test system: LOX IMVI melanoma
M14 melanoma = test system: M14 melanoma
UACC-257 melanoma = test system: UACC-257 melanoma
HT29 colon = test system: HT29 colon
COLO 205 colon = test system: COLO 205 colon
HOP-92 NSCLC = test system: HOP-92 NSCLC
CCRF-CEM leukemia = test system: CCRF-CEM leukemia
SK-MEL-5 melanoma = test system: SK-MEL-5 melanoma
SN12C renal = test system: SN12C renal
SNB-75 CNS = test system: SNB-75 CNS
MDA-MB-231 breast = test system: MDA-MB-231 breast
SW-620 colon = test system: SW-620 colon

c1cc2c(s1)SSSSS2
GI50 (OVCAR-4 ovarian): 24.2 µM | TGI (OVCAR-4 ovarian): 46.9 µM | GI50 (MDA-MB-435): 18.9 µM | TGI (MDA-MB-435): 35.8 µM | GI50 (CAKI-1 renal): 17.8 µM | TGI (CAKI-1 renal): 36.6 µM | GI50 (MCF7 breast): 16.4 µM | TGI (MCF7 breast): 35 µM | GI50 (SK-MEL-2 melanoma): 29.3 µM | TGI (SK-MEL-2 melanoma): > 100 µM | GI50 (SF-268 CNS): 19.1 µM | TGI (SF-268 CNS): 38.6 µM | GI50 (DU-145 prostate): 17.1 µM | TGI (DU-145 prostate): 34.1 µM | GI50 (MOLT-4 leukemia): 18.8 µM | TGI (MOLT-4 leukemia): > 100 µM | GI50 (TK-10 renal): 16.7 µM | TGI (TK-10 renal): 33.5 µM | GI50 (HCC-2998 colon): 24 µM | TGI (HCC-2998 colon): 39.9 µM | GI50 (SNB-19 CNS): 22.9 µM | TGI (SNB-19 CNS): 47 µM | GI50 (OVCAR-3 ovarian): 18 µM | TGI (OVCAR-3 ovarian): 34.5 µM | GI50 (BT-549 breast): 33.8 µM | TGI (BT-549 breast): 85.9 µM | GI50 (K-562 leukemia): 16.1 µM | TGI (K-562 leukemia): > 100 µM | GI50 (NCI-H460 lung): 19.9 µM | TGI (NCI-H460 lung): 42.2 µM | GI50 (HOP-62 NSCLC): 28.2 µM | TGI (HOP-62 NSCLC): 55.3 µM | GI50 (OVCAR-8 ovarian): 36.3 µM | TGI (OVCAR-8 ovarian): > 100 µM | GI50 (PC-3 prostate): 16.5 µM | TGI (PC-3 prostate): 39.6 µM | GI50 (RPMI-8226 leukemia): 7.06 µM | TGI (RPMI-8226 leukemia): 29.4 µM | GI50 (HCT-15 colon): 15.8 µM | TGI (HCT-15 colon): 85.9 µM | GI50 (SR leukemia): 3.17 µM | TGI (SR leukemia): 22.8 µM | GI50 (OVCAR-5 ovarian): 21.1 µM | TGI (OVCAR-5 ovarian): 36.6 µM | GI50 (NCI-H522 lung): 27.8 µM | TGI (NCI-H522 lung): 81.8 µM | GI50 (U251 CNS): 17.6 µM | TGI (U251 CNS): 39.6 µM | GI50 (HCT-116 colon): 9.06 µM | TGI (HCT-116 colon): 21.2 µM | GI50 (IGROV1 ovarian): 19 µM | TGI (IGROV1 ovarian): 43.1 µM | GI50 (UACC-62 melanoma): 13.8 µM | TGI (UACC-62 melanoma): 28.1 µM | GI50 (RXF 393 renal): 18.4 µM | TGI (RXF 393 renal): 41.5 µM | GI50 (NCI/ADR-RES ovarian): 22.8 µM | TGI (NCI/ADR-RES ovarian): 46.4 µM | GI50 (SK-OV-3 ovarian): 34.5 µM | TGI (SK-OV-3 ovarian): 72.7 µM | GI50 (SF-539 CNS): 21.7 µM | TGI (SF-539 CNS): 39.6 µM | GI50 (EKVX NSCLC): 34.6 µM | TGI (EKVX NSCLC): 68.2 µM | GI50 (T-47D breast): 13 µM | TGI (T-47D breast): 32.4 µM | GI50 (NCI-H23 lung): 14.6 µM | TGI (NCI-H23 lung): 30.7 µM | GI50 (KM12 colon): 19.3 µM | TGI (KM12 colon): 38.1 µM | GI50 (HL-60(TB) leukemia): 11.8 µM | TGI (HL-60(TB) leukemia): > 100 µM | GI50 (A549 NSCLC): 31.8 µM | TGI (A549 NSCLC): > 100 µM | GI50 (786-0 renal): 14.9 µM | TGI (786-0 renal): 29.1 µM | GI50 (SK-MEL-28 melanoma): 23 µM | TGI (SK-MEL-28 melanoma): 41.9 µM | GI50 (SF-295 CNS): 18.3 µM | TGI (SF-295 CNS): 36.9 µM | GI50 (ACHN renal): 15.5 µM | TGI (ACHN renal): 31.7 µM | GI50 (MALME-3M melanoma): 17.1 µM | TGI (MALME-3M melanoma): 40.2 µM | GI50 (UO-31 renal): 17.6 µM | TGI (UO-31 renal): 33.7 µM | GI50 (LOX IMVI melanoma): 11.9 µM | TGI (LOX IMVI melanoma): 40.3 µM | GI50 (M14 melanoma): 11.2 µM | TGI (M14 melanoma): 29.4 µM | GI50 (UACC-257 melanoma): 35.2 µM | TGI (UACC-257 melanoma): > 100 µM | GI50 (HT29 colon): 23.3 µM | TGI (HT29 colon): 41.4 µM | GI50 (COLO 205 colon): 17.6 µM | TGI (COLO 205 colon): 46.6 µM

[N-]=[N+]=NCCCn1c2c(c3cc4c(cc3c1=O)OCO4)C(=O)c1ccccc1-2
GI50 (OVCAR-4 ovarian): > 100 µM | TGI (OVCAR-4 ovarian): > 100 µM | GI50 (MDA-MB-435): 10.3 µM | TGI (MDA-MB-435): > 100 µM | GI50 (CAKI-1 renal): 89.1 µM | TGI (CAKI-1 renal): > 100 µM | GI50 (MCF7 breast): 7.5 µM | TGI (MCF7 breast): > 100 µM | GI50 (SK-MEL-2 melanoma): 91.1 µM | TGI (SK-MEL-2 melanoma): > 100 µM | GI50 (SF-268 CNS): > 100 µM | TGI (SF-268 CNS): > 100 µM | GI50 (DU-145 prostate): 17.5 µM | TGI (DU-145 prostate): > 100 µM | GI50 (MOLT-4 leukemia): 0.0905 µM | TGI (MOLT-4 leukemia): 13.7 µM | GI50 (TK-10 renal): 42.6 µM | TGI (TK-10 renal): > 100 µM | GI50 (HCC-2998 colon): > 100 µM | TGI (HCC-2998 colon): > 100 µM | GI50 (HOP-92 NSCLC): 64.2 µM | TGI (HOP-92 NSCLC): > 100 µM | GI50 (SNB-19 CNS): > 100 µM | TGI (SNB-19 CNS): > 100 µM | GI50 (OVCAR-3 ovarian): 71.9 µM | TGI (OVCAR-3 ovarian): > 100 µM | GI50 (BT-549 breast): > 100 µM | TGI (BT-549 breast): > 100 µM | GI50 (CCRF-CEM leukemia): 39.2 µM | TGI (CCRF-CEM leukemia): > 100 µM | GI50 (SK-MEL-5 melanoma): 3.52 µM | TGI (SK-MEL-5 melanoma): 31.3 µM | GI50 (K-562 leukemia): 28.7 µM | TGI (K-562 leukemia): > 100 µM | GI50 (NCI-H460 lung): 62.8 µM | TGI (NCI-H460 lung): > 100 µM | GI50 (HOP-62 NSCLC): 39 µM | TGI (HOP-62 NSCLC): > 100 µM | GI50 (OVCAR-8 ovarian): 21.6 µM | TGI (OVCAR-8 ovarian): 87.3 µM | GI50 (PC-3 prostate): > 100 µM | TGI (PC-3 prostate): > 100 µM | GI50 (RPMI-8226 leukemia): > 100 µM | TGI (RPMI-8226 leukemia): > 100 µM | GI50 (HCT-15 colon): > 100 µM | TGI (HCT-15 colon): > 100 µM | GI50 (SN12C renal): > 100 µM | TGI (SN12C renal): > 100 µM | GI50 (NCI-H522 lung): 75 µM | TGI (NCI-H522 lung): > 100 µM | GI50 (U251 CNS): > 100 µM | TGI (U251 CNS): > 100 µM | GI50 (HCT-116 colon): 40.1 µM | TGI (HCT-116 colon): > 100 µM | GI50 (UACC-62 melanoma): 87.3 µM | TGI (UACC-62 melanoma): > 100 µM | GI50 (NCI/ADR-RES ovarian): > 100 µM | TGI (NCI/ADR-RES ovarian): > 100 µM | GI50 (SK-OV-3 ovarian): > 100 µM | TGI (SK-OV-3 ovarian): > 100 µM | GI50 (SF-539 CNS): > 100 µM | TGI (SF-539 CNS): > 100 µM | GI50 (EKVX NSCLC): > 100 µM | TGI (EKVX NSCLC): > 100 µM | GI50 (T-47D breast): > 100 µM | TGI (T-47D breast): > 100 µM | GI50 (NCI-H23 lung): 42.8 µM | TGI (NCI-H23 lung): > 100 µM | GI50 (SNB-75 CNS): 72.8 µM | TGI (SNB-75 CNS): > 100 µM | GI50 (KM12 colon): > 100 µM | TGI (KM12 colon): > 100 µM | GI50 (A549 NSCLC): 93.5 µM | TGI (A549 NSCLC): > 100 µM | GI50 (786-0 renal): 67.7 µM | TGI (786-0 renal): > 100 µM | GI50 (MDA-MB-231 breast): > 100 µM | TGI (MDA-MB-231 breast): > 100 µM | GI50 (SK-MEL-28 melanoma): > 100 µM | TGI (SK-MEL-28 melanoma): > 100 µM | GI50 (SF-295 CNS): 32.4 µM | TGI (SF-295 CNS): > 100 µM | GI50 (SW-620 colon): > 100 µM | TGI (SW-620 colon): > 100 µM | GI50 (ACHN renal): 13.1 µM | TGI (ACHN renal): 86 µM | GI50 (UO-31 renal): > 100 µM | TGI (UO-31 renal): > 100 µM | GI50 (LOX IMVI melanoma): 13.5 µM | TGI (LOX IMVI melanoma): > 100 µM | GI50 (M14 melanoma): 43 µM | TGI (M14 melanoma): > 100 µM | GI50 (HT29 colon): > 100 µM | TGI (HT29 colon): > 100 µM
